Where “and” joins values, the source holds several entries; their conditions need not be identical. Equal entries are not always repeated.
Test system: SK-RC-52 xenografts
Test: Biodistribution in mice bearing SK-RC-52 xenografts
Assay type: in vivo
Details: n = 5; for Biodistribution: Tumor: SK-RC-52 tumor
Description: Mice bearing SK-RC-52 xenografts within the lower left flank were injected intravenously with 740 kBq (20 μCi) of [^111In]XYIMSR-01 in 200 μL of PBS. For in vivo competition (binding specificity) studies, tumor-bearing mice were injected with 740 kBq (20 μCi) of [^111In]XYIMSR-01 and 200 nmole of 1 in 200 μL of PBS concurrently. At 1 h, 4 h, 8 h, 24 h and 48 h post-injection, mice were sacrificed by cervical dislocation and the blood was immediately collected by cardiac puncture. Heart, lungs, pancreas, spleen, fat, brain, muscle, small intestines, liver, stomach, kidney, urinary bladder, and tumor were collected. Each organ was weighed and the tissue radioactivity was measured with an automated gamma counter (1282 Compugamma CS, Pharmacia/LKBNuclear, Inc., Mt. Waverly, Vic. Australia). The percentage of injected dose per gram of tissue (% ID/g) was calculated by comparison with samples of a standard dilution of the initial dose. All measurements were corrected for radioactive decay.
Data were expressed as mean ± standard deviation (SD). Prism software (GraphPAD, San Diego, California) was used to determine statistical significance. Statistical significance was calculated using a paired t test. P-values < 0.0001 were considered significant.

[1] = 24 h + Block (co-injected 200 nmole of 1)

CC(CCC(=O)N[C@@H](CC(=O)N[C@@H](CC(=O)N[C@@H](CCCCn1cc(CCCC(=O)Nc2nnc(S(N)(=O)=O)s2)nn1)C(=O)NCCOCCOCCNC(=O)CN1CCN(CC(=O)[O-])CCN(CC(=O)[O-])CCN(CC(=O)[O-])CC1)C(=O)O)C(=O)O)(c1ccc(O)cc1)c1ccc(O)cc1.[111In+3] [[^111In]XYIMSR-01]
Biodistribution: Tumor (1 h post-injection, i.v.): 26 %ID/g and 26.01 ± 5.74 %ID/g
Biodistribution: Bladder (1 h post-injection, i.v.): 4.90 ± 4.96 %ID/g
Biodistribution: Blood (1 h post-injection, i.v.): 1.34 ± 0.17 %ID/g
Biodistribution: Brain (1 h post-injection, i.v.): 1.23 ± 1.10 %ID/g
Biodistribution: Fat (1 h post-injection, i.v.): 1.03 ± 0.24 %ID/g
Biodistribution: Heart (1 h post-injection, i.v.): 5.98 ± 0.53 %ID/g
Biodistribution: Kidney (kid) (1 h post-injection, i.v.): 71.26 ± 8.74 %ID/g
Biodistribution: Liver (1 h post-injection, i.v.): 8.36 ± 0.73 %ID/g
Biodistribution: Lung (1 h post-injection, i.v.): 45.85 ± 19.89 %ID/g
Biodistribution: Muscle (mm) (1 h post-injection, i.v.): 2.34 ± 2.19 %ID/g
Biodistribution: Pancreas (1 h post-injection, i.v.): 3.81 ± 0.72 %ID/g
Biodistribution: Sm. intestine (1 h post-injection, i.v.): 9.37 ± 1.26 %ID/g
Biodistribution: Spleen (1 h post-injection, i.v.): 0.52 ± 0.04 %ID/g
Biodistribution: Stomach (1 h post-injection, i.v.): 16.71 ± 2.46 %ID/g
Tumor/blood ratio (1 h post-injection): 19.7 and 19.7 ± 4.8
Tumor/kid (kidney) ratio (1 h post-injection): 0.36 ± 0.06
Tumor/mm (muscle) ratio (1 h post-injection): 12.7 and 12.7 ± 5.8
Biodistribution: Tumor (4 h post-injection, i.v.): 20.83 ± 6.25 %ID/g
Biodistribution: Bladder (4 h post-injection, i.v.): 2.68 ± 1.89 %ID/g
Biodistribution: Blood (4 h post-injection, i.v.): 0.65 ± 0.06 %ID/g
Biodistribution: Brain (4 h post-injection, i.v.): 0.45 ± 0.06 %ID/g
Biodistribution: Fat (4 h post-injection, i.v.): 0.42 ± 0.22 %ID/g
Biodistribution: Heart (4 h post-injection, i.v.): 2.91 ± 0.45 %ID/g
Biodistribution: Kidney (kid) (4 h post-injection, i.v.): 41.52 ± 6.07 %ID/g
Biodistribution: Liver (4 h post-injection, i.v.): 4.00 ± 0.58 %ID/g
Biodistribution: Lung (4 h post-injection, i.v.): 17.85 ± 3.55 %ID/g
Biodistribution: Muscle (mm) (4 h post-injection, i.v.): 1.01 ± 0.28 %ID/g
Biodistribution: Pancreas (4 h post-injection, i.v.): 1.54 ± 0.40 %ID/g
Biodistribution: Sm. intestine (4 h post-injection, i.v.): 4.27 ± 0.69 %ID/g
Biodistribution: Spleen (4 h post-injection, i.v.): 0.51 ± 0.08 %ID/g
Biodistribution: Stomach (4 h post-injection, i.v.): 7.91 ± 1.28 %ID/g
Tumor/blood ratio (4 h post-injection): 31.9 ± 9.4
Tumor/kid (kidney) ratio (4 h post-injection): 0.50 ± 0.15
Tumor/mm (muscle) ratio (4 h post-injection): 21.4 ± 7.2
Biodistribution: Tumor (8 h post-injection, i.v.): 34.00 ± 15.16 %ID/g
Biodistribution: Bladder (8 h post-injection, i.v.): 2.28 ± 0.51 %ID/g
Biodistribution: Blood (8 h post-injection, i.v.): 0.48 ± 0.02 %ID/g
Biodistribution: Brain (8 h post-injection, i.v.): 0.59 ± 0.09 %ID/g
Biodistribution: Fat (8 h post-injection, i.v.): 0.45 ± 0.08 %ID/g
Biodistribution: Heart (8 h post-injection, i.v.): 2.61 ± 0.35 %ID/g
Biodistribution: Kidney (kid) (8 h post-injection, i.v.): 28.79 ± 21.35 %ID/g
Biodistribution: Liver (8 h post-injection, i.v.): 3.65 ± 0.65 %ID/g
Biodistribution: Lung (8 h post-injection, i.v.): 17.39 ± 8.99 %ID/g
Biodistribution: Muscle (mm) (8 h post-injection, i.v.): 1.09 ± 0.15 %ID/g
Biodistribution: Pancreas (8 h post-injection, i.v.): 1.61 ± 0.28 %ID/g
Biodistribution: Sm. intestine (8 h post-injection, i.v.): 4.31 ± 0.67 %ID/g
Biodistribution: Spleen (8 h post-injection, i.v.): 0.64 ± 0.07 %ID/g
Biodistribution: Stomach (8 h post-injection, i.v.): 8.74 ± 1.26 %ID/g
Tumor/blood ratio (8 h post-injection): 77.0 ± 32.5
Tumor/kid (kidney) ratio (8 h post-injection): 3.1 ± 3.1
Tumor/mm (muscle) ratio (8 h post-injection): 34.2 ± 16.0
Biodistribution: Tumor [1]: 1 %ID/g and 1.41 ± 0.20 %ID/g
Biodistribution: Bladder [1]: 0.20 ± 0.07 %ID/g
Biodistribution: Blood [1]: 0.03 ± 0.00 %ID/g
Biodistribution: Brain [1]: 0.03 ± 0.00 %ID/g
Biodistribution: Fat [1]: 0.02 ± 0.01 %ID/g
Biodistribution: Heart [1]: 0.04 ± 0.01 %ID/g
Biodistribution: Kidney (kid) [1]: 0.68 ± 0.14 %ID/g
Biodistribution: Liver [1]: 0.10 ± 0.02 %ID/g
Biodistribution: Lung [1]: 0.12 ± 0.02 %ID/g
Biodistribution: Muscle (mm) [1]: 0.02 ± 0.00 %ID/g
Biodistribution: Pancreas [1]: 0.03 ± 0.00 %ID/g
Biodistribution: Sm. intestine [1]: 0.08 ± 0.01 %ID/g
Biodistribution: Spleen [1]: 0.08 ± 0.01 %ID/g
Biodistribution: Stomach [1]: 0.14 ± 0.02 %ID/g
Tumor/blood ratio [1]: 45.2 ± 9.7
Tumor/kid (kidney) ratio [1]: 2.1 ± 0.3

Reference: PMC4741798, “Imaging of carbonic anhydrase IX with an ^111In-labeled dual-motif inhibitor” (Oncotarget, 2015)
